Measured values: paper PMC12119673, “Apoptotic cell death induced by copper (II), manganese (II) and silver (I) complexes containing bridging dicarboxylate and 1,10-phenanthroline ligands: one of the multi-modes of anticancer activity?” (Biometals, 2025)
Read-outs that look alike come from different tables or passages of the source.

Tests used:
Assay type in all cases: cell-based, human
[1] = system: caspase-3/7 in MCF-7 cells; experiment: Caspase 3/7 expression, FLICA (FAM-DEVD-FMK) flow cytometry; settings: MCF-7, IC25 concentration, 24 h
Procedure: The expression of caspase-3/7 in MCF-7 and MCF-12A cells was determined using the VybrantTM FAM™ Caspase-3 and Caspase-7 Assay Kit (Cat# V35118) (Thermo Fisher Scientific, Ireland). Cells were seeded at a density of 1 × 10^5 in T25 flasks and incubated in routine conditions for 24 h. […] Post-exposure, the cells were harvested for staining.
Flow cytometry data analysis was performed with the CytExpert package (Ver. 2.4) (Beckman Coulter, USA) and Microsoft^Ⓡ Excel (USA). The mean MFI and percentage cells were calculated using these packages, followed by one-way ANOVA analysis with post hoc Bonferroni correction using GraphPad Prism (Ver. 9.4) (GraphPad, USA).
The expression of caspase-3/7 was analysed in MCF-7 and MCF-12A cells using fluorescent labelled inhibitors of caspase (FLICA): FAM-DEVD-FMK. […] Following the apoptosis induction study, it was of interest to determine whether the complexes were stimulating the executioner caspases triggering the irreversible proteolytic degradation of cells, culminating in cell death. […] These three complexes were selected based on their structural similarities, while incorporating alternative metal centres.

[2] = system: apoptotic genes in MCF-7 cells; experiment: Apoptosis-related gene expression, qRT-PCR; settings: MCF-7, IC25 concentration, 24 h, relative to negative control
Procedure: (§1) A broad scope of molecular targets involved in the apoptotic pathway were selected for analysis using qRT-PCR including initiators, mediators and inhibitors. These gene targets along with their cellular location and associated primer set are outlined in Table 2. Primer sets for each gene were designed using NCBI nucleotide sequences and the Primer3 application (Table 3). Once designed, the primers were synthesised by Sigma Aldrich, Ireland.
(§2) MCF-7 and MCF-12A cells were seeded at a density of 1 × 10^5 in T25 flasks and incubated for 24 h allowing for attachment. Following incubation, the seeding media was removed, and the cells were washed with PBS. […] Post-exposure, RNA was isolated from the cells. Tri-reagent^Ⓡ (Sigma, Ireland) (Cat# T9424) was added to the cells followed by centrifugation at 300 g for 5 min. The RNA was precipitated using chloroform, followed by centrifugation and washing of the pellet using 75% ethanol. The RNA was resuspended in 30 μl of nuclease-free water. The RNA was either used immediately for qRT-PCR or stored at −80 ℃. The RNA from each sample was quantified using the NanoDrop™ 2000 Spectrophotometer (Thermo Fisher Scientific, Ireland). The A260/A230 ratio was measured to ensure the purity of each sample. Prior to cDNA synthesis, all samples were adjusted to a concentration of 100 ng. The RNA was then reverse transcribed into cDNA using the Quanta Biosciences Kit (Quanta Biosciences, USA) (Cat# 95047). Using the SimpliAmp Thermal Cycler (Applied Biosystems; Thermo Fisher Scientific, Ireland), the following settings were applied: 5 min at 22 ℃, 30 min at 42 ℃, 5 min at 85 ℃; samples were then maintained in an indefinite hold at 4 ℃ prior to being used for quantitative real-time PCR. The cDNA templates were amplified and analysed using SYBR™ Green (Fisher Scientific, UK) (Cat#10187094). Using the 7500 fast Real-Time PCR System (Applied Biosystems, USA), the following thermal cycling setting were applied for amplification: Pre-Incubation (1 cycle) 95 ℃, 5 Minutes, 4.4 ℃ ramp; Amplification (45 cycles) 95 °C 10 s ramp 4.4 °C, 60 °C 10 s ramp 2.2 °C, 72 °C 10 s ramp 4.4 °C; Melting Curve (1 cycle) 95 °C 5 s ramp 4.4 °C, 65 °C 1 min ramp 2.2 °C, 97 °C continuous ramp 0.11 °C acquisition 10 per °C; Cooling (1 cycle) 40 °C 10 s ramp 1.5 °C. Two reference genes, actin and tubulin, were employed to determine the expression of the target genes. No template controls were included to confirm the absence of template contamination and auto-fluorescence. Each PCR plate contained three technical replicates per sample and gene target, with each experiment repeated three independent times using three individual biological replicates.
(§3) qRT-PCR data was analysed by first using the Vandesompele method to calculate the geometric mean of Ct values for the reference genes, actin and tubulin. These values were used for normalisation of the target gene expression values which were then calculated using the Livak and Schmittgen formula: 2^−ΔCt1(test)−ΔCt2(control) (Livak and Schmittgen [2001]; Vandesompele et al. [2002]).
(§4) The expression profiles (Fig. 4) display the log(2) transformed mean expression value for each gene target relative to the negative control. Expression values for each target were determined relative to the geometric means of reference genes. […] Each graph contains a threshold line, set at the value of one, this represents baseline expression levels of genes.

[3] = system: apoptotic genes in MCF-12A cells; experiment: Apoptosis-related gene expression, qRT-PCR; settings: IC25 concentration, 24 h, relative to negative control
Procedure: as §1, §2, §3, §4

MCF-7 cells = experiment: In vitro cytotoxicity assessment, alamar blue assay, 24-h exposure
Procedure: The MCF-7 (human breast cancer) and MCF-12A (non-tumourigenic human breast) cell lines were obtained from the Technological University Dublin (TUDublin, City Campus) internal cell bank and commercially from the American Type Culture Collection (ATCC), respectively. Both cell lines were cultured using Dulbecco’s Modified Eagle Medium/Nutrient Mixture F-12 Ham (DMEM-F12) (Sigma, Ireland) (Cat# D6421) media. The MCF-7 media was supplemented with 10% Foetal Bovine Serum (Sigma, Ireland) (Cat# F7524) and 1% L-Glutamine (Sigma, Ireland) (Cat# 592020C). The MCF-12A media was supplemented with 5% Equine Serum (Sigma, Ireland) (Cat# H0146) 1.25% L-Glutamine (Sigma, Ireland) (Cat# 592020C), 20 ng/ml Human Epidermal Growth Factor (Thermo Fisher Scientific, Ireland) (Cat# PHG0313), 0.01 mg/ml insulin (Thermo Fisher Scientific, Ireland)(Cat# 12585014) and 500 ng/ml hydrocortisone (Sigma, Ireland) (Cat# H0888). The cells were grown in T75 culture flasks (Sarstedt, Germany) (Cat# 83.3911.002) and were incubated in a 5% CO2 atmosphere at 37 ℃. […] Following the incubation period, the media was removed, and cells were washed with sterile phosphate-buffered saline (PBS). […] Following the exposure period, the drug-containing media was removed, and cells were washed three times with PBS, ensuring complete removal of the test agents. A 5% working solution of Alamar Blue (Thermo Fisher Scientific, Ireland) (Cat# DAL1100) was prepared in dark conditions using unsupplemented cell culture media. 100 μl of the solution was added to each well, and the cells were incubated for 3 h. […] Each exposure was carried out in triplicate plates and was repeated three independent times. The software packages Microsoft^Ⓡ Excel (USA) and GraphPad Prism (Ver. 10.0.3) (GraphPad, USA) were used to analyse the alamar blue data. The treated sample values were first normalised to the negative control values. After normalisation, the mean and standard deviations (SD) were established using Microsoft^Ⓡ Excel. The statistical analysis package GraphPad was then used to determine the IC25 and IC50 concentrations.

MCF-12A cells = experiment: as above
Procedure: The MCF-7 (human breast cancer) and MCF-12A (non-tumourigenic human breast) cell lines were obtained from the Technological University Dublin (TUDublin, City Campus) internal cell bank and commercially from the American Type Culture Collection (ATCC), respectively. Both cell lines were cultured using Dulbecco’s Modified Eagle Medium/Nutrient Mixture F-12 Ham (DMEM-F12) (Sigma, Ireland) (Cat# D6421) media. The MCF-7 media was supplemented with 10% Foetal Bovine Serum (Sigma, Ireland) (Cat# F7524) and 1% L-Glutamine (Sigma, Ireland) (Cat# 592020C). The MCF-12A media was supplemented with 5% Equine Serum (Sigma, Ireland) (Cat# H0146) 1.25% L-Glutamine (Sigma, Ireland) (Cat# 592020C), 20 ng/ml Human Epidermal Growth Factor (Thermo Fisher Scientific, Ireland) (Cat# PHG0313), 0.01 mg/ml insulin (Thermo Fisher Scientific, Ireland)(Cat# 12585014) and 500 ng/ml hydrocortisone (Sigma, Ireland) (Cat# H0888). The cells were grown in T75 culture flasks (Sarstedt, Germany) (Cat# 83.3911.002) and were incubated in a 5% CO2 atmosphere at 37 ℃. The cells were monitored daily, and once 80–90% confluence was reached, they were subcultured with an enzymatic dissociation method using trypsin. Both cell lines were routinely subcultured for 1 week prior to beginning experimental work, to ensure the cells had adapted to the environment.
The MCF-7 and MCF-12A cells were seeded at a density of 1 × 10^4 in 96-well flat bottom plates (Sarstedt, Germany) (Cat# 83.3924) and incubated in a 5% CO2 atmosphere at 37 ℃ for 24 h prior to exposure to the complexes. Following the incubation period, the media was removed, and cells were washed with sterile phosphate-buffered saline (PBS). […] All agents were diluted in supplemented cell culture media, and the cells were exposed to a concentration range of 0.5 μM–100 μM for 24 h in the conditions outlined previously. Following the exposure period, the drug-containing media was removed, and cells were washed three times with PBS, ensuring complete removal of the test agents. A 5% working solution of Alamar Blue (Thermo Fisher Scientific, Ireland) (Cat# DAL1100) was prepared in dark conditions using unsupplemented cell culture media. 100 μl of the solution was added to each well, and the cells were incubated for 3 h. Following incubation, absorbance values were obtained using a Varioskan Lux (Thermo Scientific, USA) at 570 nm and 600 nm wavelengths. Each exposure was carried out in triplicate plates and was repeated three independent times.
The software packages Microsoft^Ⓡ Excel (USA) and GraphPad Prism (Ver. 10.0.3) (GraphPad, USA) were used to analyse the alamar blue data. The treated sample values were first normalised to the negative control values. After normalisation, the mean and standard deviations (SD) were established using Microsoft^Ⓡ Excel. The statistical analysis package GraphPad was then used to determine the IC25 and IC50 concentrations. […] A p value of 0.05 or lower is considered to be statistically significant.

| Structure (SMILES) | Expression of caspase-3/7 (% cells) [1] | Caspase gene expression (caspase-9, -8, -3) [2] | Pro-apoptotic gene expression (BID, BIM, BAD, BAX) [2] | Caspase gene expression (caspase-9, -8, -3) [3] | Pro-apoptotic gene expression (BID, BIM, BAD, BAX) [3] | Cytotoxic activity IC25 ± SD (MCF-7 cells) | IC50 (MCF-7 cells) | IC25 calculated per one metal centre (MCF-7 cells; MCF-7, 24-hour exposure, per one metal centre, mean ± S.D. (N=3)) | IC50 (MCF-7 cells; MCF-7, 24-hour exposure, per one metal centre, mean ± S.D. (N=3), read-out: IC50 calculated per one metal centre) | Cytotoxic activity IC25 ± SD (MCF-12A cells) | IC50 (MCF-12A cells) | IC25 calculated per one metal centre (MCF-12A cells; MCF-12A, 24-hour exposure, per one metal centre, mean ± S.D. (N=3)) | IC50 (MCF-12A cells; MCF-12A, 24-hour exposure, per one metal centre, mean ± S.D. (N=3), read-out: IC50 calculated per one metal centre) |
| --- | --- | --- | --- | --- | --- | --- | --- | --- | --- | --- | --- | --- | --- |
| N.N.[Cl][Pt][Cl] [Cisplatin, reference compound] | lowest expression levels | all caspases seen to be activated | pro-apoptotic BIM and BAD were upregulated | all caspases seen to be activated | pro-apoptotic BIM and BAD were upregulated |  |  |  |  |  |  |  |  |
| O=C([O-])CCCCCCC(=O)[O-].O=C([O-])CCCCCCC(=O)[O-].[Cu+2].[Cu+2] [Complex 3, [Cu2(oda)2]] |  |  |  |  |  | > 100 µM | > 100 µM | >100  µM | > 100 µM | > 100 µM | > 100 µM | >100  µM | > 100 µM |
